Measured values reported in article PMC10352132 (Nature Structural & Molecular Biology, 2023).
Where “and” joins values, the source holds several entries; their conditions need not be identical. Equal values may be shown once. Read-outs that look alike come from different tables or passages of the source.

Legend:
rGAT1WT [1] = target: T1, rGAT1WT (Rattus norvegicus, UniProt P23978); test: MS binding assay (LC-ESI-MS/MS saturation) with rGAT1WT expressing membranes; conditions: for total binding / non-specific binding: rGAT1WT; for total binding: triplicate; for non-specific binding: in the presence of 100 mM GABA
Experimental: (§1) The cell suspension was sonicated, the lysate was centrifuged at 21,000×g to separate the cell debris and 1 ml of the supernatant was aliquoted into each of forty 1.5 ml microfuge tubes. The membrane suspension was spun at 49,000×g for 90 min in a TLA100.1 rotor (Beckman) followed by flash-freezing and storage at −80 °C.
(§2) Binding experiments were performed as described unless stated otherwise. Aliquots of rGAT1 or hGAT1[53] membrane preparations were defrosted, diluted in 20 ml 50 mM Tris-citrate buffer containing 1 M NaCl, pH 7.1 (assay buffer) and centrifuged (50,000×g, 4 °C, 20 min). After resuspension of the pellet in assay buffer, saturation experiments with NO711 were performed in triplicate samples (about 10 µg protein) in a total assay volume of 250 µl. […] Incubation was performed for 40 min at 37 °C; subsequently, 200 µl aliquots of the binding samples were transferred onto 96-well filter plates and filtrated under vacuum, followed by rapid washing of the filters with ice-cold 0.9% NaCl (3 × 150 µl). The filter plates were then dried (60 min, 50 °C) and eluted with 3 × 100 µl methanol (containing 1.43 nM D10-NO711). […] Analysis of the binding data was performed with GraphPad Prism (version 6.0.7). The results are based on at least three independent saturation experiments for each GAT1 species.

rGAT1EM [2] = target: T2, rGAT1EM (Rattus norvegicus, UniProt P23978, D482E/E486D/F312Y/N483D/Q485R/R491P/S490F/V488I/Y481S); test: Inhibition of 3H-GABA uptake through rGAT1EM; assay type: cell-based; conditions: rGAT1EM; for 3[H]GABA uptake (% of uninhibited sample): replicates T1-T6
T2 sequence (P23978 with tags, fused parts or gaps F312Y/Y481S/D482E/N483D/Q485R/E486D/V488I/S490F/R491P): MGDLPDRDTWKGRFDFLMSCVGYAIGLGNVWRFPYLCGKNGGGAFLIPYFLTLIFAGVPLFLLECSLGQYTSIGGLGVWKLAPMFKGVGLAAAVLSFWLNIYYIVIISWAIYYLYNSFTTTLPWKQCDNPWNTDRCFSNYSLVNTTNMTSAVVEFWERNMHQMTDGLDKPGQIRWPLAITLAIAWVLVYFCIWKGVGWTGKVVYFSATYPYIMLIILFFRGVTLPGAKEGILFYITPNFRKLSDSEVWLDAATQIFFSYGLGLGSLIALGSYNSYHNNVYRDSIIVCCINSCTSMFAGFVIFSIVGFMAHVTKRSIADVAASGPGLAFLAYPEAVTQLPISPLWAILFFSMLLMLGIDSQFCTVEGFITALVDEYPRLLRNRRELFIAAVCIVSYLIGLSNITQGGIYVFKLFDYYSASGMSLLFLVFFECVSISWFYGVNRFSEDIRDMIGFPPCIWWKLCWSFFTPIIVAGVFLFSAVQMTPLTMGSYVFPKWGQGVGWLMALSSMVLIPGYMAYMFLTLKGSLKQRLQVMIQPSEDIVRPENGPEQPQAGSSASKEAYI
Experimental: (§3) […]. After 15 min, the uptake was arrested with 100 µl of ice-cold assay buffer and washed two times with the same buffer. The cells were solubilized for 1 h in 100 µl of 20 mM DDM and 2 mM CHS, and 50 µl of scintillant was added to the solubilized material. Counts were measured using a MicroBeta scintillation counter. Uninfected cells were used as a control. The background-subtracted dose–response curves were plotted as log [inhibitor] versus response using GraphPad Prism (version 5.0.1) and IC50 values were determined. The Ki values were calculated using Cheng-Prusoff’s equation. […] The data were analyzed using GraphPad Prism (version 5.0.1).

rGAT1EM [3] = target: T2, rGAT1EM; test: MS binding assay (LC-ESI-MS/MS saturation) with rGAT1EM expressing membranes; conditions: for total binding / non-specific binding: rGAT1EM; for total binding: triplicate; for non-specific binding: in the presence of 100 mM GABA
Experimental: as §1, §2

rGAT1WT [4] = target: T1, rGAT1WT; test: Inhibition of 3H-GABA uptake through rGAT1WT; assay type: cell-based; conditions: rGAT1WT; for 3[H]GABA uptake (% of uninhibited sample): replicates T1-T6
Experimental: as §3

[5] = calculated using Cheng-Prusoff's equation

## O=C(O)C1=CCCN(CCON=C(c2ccccc2)c2ccccc2)C1 [NO711]
rGAT1WT [1]; rGAT1WT membranes
  BMAX (MS binding assay): 166.4 ± 44.6 pmol/mg protein
  Kd: 50 nM and 50.6 nM
rGAT1WT [1]; c NO711 2.5 nM
  total binding: 0.0851 nM and 0.0839 nM and 0.0992 nM
rGAT1WT [1]; c NO711 5 nM
  total binding: 0.236 nM and 0.225 nM and 0.219 nM
rGAT1WT [1]; c NO711 10 nM
  total binding: 0.387 nM and 0.361 nM
rGAT1WT [1]; c NO711 20 nM
  total binding: 0.566 nM and 0.612 nM and 0.546 nM
rGAT1WT [1]; c NO711 40 nM
  non-specific binding: 0.0154 nM and 0.0179 nM and 0.0127 nM
  total binding: 0.967 nM and 0.954 nM and 0.928 nM
rGAT1WT [1]; c NO711 80 nM
  non-specific binding: 0.0317 nM and 0.0305 nM and 0.029 nM
  total binding: 1.15 nM and 1.08 nM and 1.2 nM
rGAT1WT [1]; c NO711 160 nM
  non-specific binding: 0.0708 nM and 0.0715 nM and 0.07 nM
  total binding: 1.46 nM and 1.6 nM
rGAT1WT [1]; c NO711 320 nM
  non-specific binding: 0.131 nM and 0.157 nM and 0.18 nM
  total binding: 1.95 nM and 1.86 nM and 1.76 nM
rGAT1WT [1]; c NO711 640 nM
  non-specific binding: 0.27 nM and 0.291 nM and 0.276 nM
  total binding: 2.12 nM and 2.1 nM and 2.38 nM
rGAT1WT [1]; c NO711 1280 nM
  non-specific binding: 0.65 nM and 0.595 nM and 0.624 nM
  total binding: 2.77 nM and 2.69 nM and 2.73 nM
rGAT1EM [2]; [5]
  Ki: 53 ± 4 nM
rGAT1EM [2]; inhibitor 1 nM, 0.001 µM
  3[H]GABA uptake (% of uninhibited sample): 100.216% and 103.239% and 95.1781% and 97.6251% and 105.398% and 98.3447%
rGAT1EM [2]; inhibitor 10 nM, 0.01 µM
  3[H]GABA uptake (% of uninhibited sample): 90.824% and 80.7485% and 91.6877% and 97.5891% and 93.055% and 87.4415%
rGAT1EM [2]; inhibitor 30 nM, 0.03 µM
  3[H]GABA uptake (% of uninhibited sample): 85.8582% and 72.9759% and 75.9266% and 79.8129% and 79.2371% and 88.8089%
rGAT1EM [2]; inhibitor 100 nM, 0.1 µM
  3[H]GABA uptake (% of uninhibited sample): 55.6315% and 53.1846% and 49.5862% and 54.3361% and 66.2109% and 52.321%
rGAT1EM [2]; inhibitor 500 nM, 0.5 µM
  3[H]GABA uptake (% of uninhibited sample): 29.8309% and 34.7967% and 26.0165% and 31.1983% and 34.4368% and 36.2361%
rGAT1EM [2]; inhibitor 1000 nM, 1 µM
  3[H]GABA uptake (% of uninhibited sample): 17.0205% and 18.9637% and 19.4674% and 16.1569% and 19.1796% and 13.2062%
rGAT1EM [2]; inhibitor 3000 nM, 3 µM
  3[H]GABA uptake (% of uninhibited sample): 9.608% and 6.153% and 8.168% and 9.104% (2×) and 11.1191%
rGAT1EM [2]; inhibitor 10000 nM, 10 µM
  3[H]GABA uptake (% of uninhibited sample): 5.11% and 2.879% and 4.39% and 4.246% and 2.375% and 5.038%
rGAT1EM [2]; inhibitor 50000 nM, 50 µM
  3[H]GABA uptake (% of uninhibited sample): 1.763% and 1.439% and 0.8276% and 1.799% and 0.8996% and 1.3674%
rGAT1EM [2]; inhibitor 100000 nM, 100 µM
  3[H]GABA uptake (% of uninhibited sample): 0.5757% and 0.6477% and 0.7197% and 0.5038% (2×) and 0.3598%
rGAT1EM [2]; read-out: IC50 of inhibition of 3H-GABA uptake
  IC50: 155 nM
rGAT1EM [2]; read-out: inhibition potencies (K0.5)
  IC50: 155 nM
rGAT1EM [3]; rGAT1EM membranes
  BMAX (MS binding assay): 212.4 ± 30.3 pmol/mg protein
  Kd: 80 nM and 80.7 nM
rGAT1EM [3]; c NO711 2.5 nM
  total binding: 0.0853 nM and 0.0717 nM and 0.0765 nM
rGAT1EM [3]; c NO711 5 nM
  total binding: 0.175 nM and 0.157 nM and 0.182 nM
rGAT1EM [3]; c NO711 10 nM
  total binding: 0.266 nM and 0.298 nM and 0.282 nM
rGAT1EM [3]; c NO711 20 nM
  total binding: 0.414 nM and 0.405 nM and 0.393 nM
rGAT1EM [3]; c NO711 40 nM
  non-specific binding: 0.0146 nM and 0.0116 nM and 0.0148 nM
  total binding: 0.654 nM and 0.656 nM and 0.82 nM
rGAT1EM [3]; c NO711 80 nM
  non-specific binding: 0.0357 nM and 0.0322 nM and 0.0377 nM
  total binding: 0.825 nM and 0.877 nM and 0.867 nM
rGAT1EM [3]; c NO711 160 nM
  non-specific binding: 0.0681 nM and 0.0747 nM and 0.0767 nM
  total binding: 1.22 nM and 1.29 nM and 1.33 nM
rGAT1EM [3]; c NO711 320 nM
  non-specific binding: 0.131 nM and 0.148 nM and 0.145 nM
  total binding: 1.55 nM and 1.39 nM and 1.57 nM
rGAT1EM [3]; c NO711 640 nM
  non-specific binding: 0.281 nM and 0.277 nM and 0.282 nM
  total binding: 1.85 nM and 2.19 nM and 2.02 nM
rGAT1EM [3]; c NO711 1280 nM
  non-specific binding: 0.608 nM and 0.571 nM and 0.589 nM
  total binding: 2.47 nM and 2.46 nM
rGAT1WT [4]
  IC50: 563 nM
rGAT1WT [4]; [5]
  Ki: 325 ± 35 nM
rGAT1WT [4]; inhibitor 1 nM, 0.001 µM
  3[H]GABA uptake (% of uninhibited sample): 91.7343% and 91.298% and 89.6982% and 104.496% and 107.442% and 95.8793%
rGAT1WT [4]; inhibitor 10 nM, 0.01 µM
  3[H]GABA uptake (% of uninhibited sample): 89.0619% and 103.351% and 105.969% and 101.46% and 106.551% and 93.6068%
rGAT1WT [4]; inhibitor 30 nM, 0.03 µM
  3[H]GABA uptake (% of uninhibited sample): 83.2626% and 81.7356% and 90.8981% and 90.6072% and 95.952% and 94.6794%
rGAT1WT [4]; inhibitor 100 nM, 0.1 µM
  3[H]GABA uptake (% of uninhibited sample): 91.189% and 83.9535% and 82.5718% and 49.5576% and 81.2629% and 73.9547%
rGAT1WT [4]; inhibitor 500 nM, 0.5 µM
  3[H]GABA uptake (% of uninhibited sample): 55.0115% and 49.6303% and 48.5396% and 53.3026% and 54.4298% and 46.4671%
rGAT1WT [4]; inhibitor 1000 nM, 1 µM
  3[H]GABA uptake (% of uninhibited sample): 39.1225% and 40.286% and 41.9222% and 36.8319% and 37.6318% and 37.6682%
rGAT1WT [4]; inhibitor 3000 nM, 3 µM
  3[H]GABA uptake (% of uninhibited sample): 18.3614% and 14.2165% and 17.0888% and 16.5071%
